Measurements from US11390631B1, “Benzodiazepine derivatives as RSV inhibitors” (priority 2015, dated 2022).

What was measured:
[1] = system: Human RSV-A (“Long” strain); test: RSV-A assay: inhibition of cytopathic effect in Hep-2 cells, ATPlite readout; assay type: cell-based, Human respiratory syncytial virus (HRSV); details: human respiratory syncytial virus, HEp-2, 120 h, read-out: Human RSV-A (“Long” strain) EC50
Procedure, shortened: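 Cytopathic-effect protection was read as ATP content (ATPlite luminescence) after a 5-day incubation. Setup: Hep-2 cells at 8,000 per well, RSV-A Long at MOI 0.1, 2-fold serial compound dilutions in duplicate. Cytotoxicity (CC50) was measured on an identical uninfected plate run in parallel.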

[2] = Cytotoxicity on parallel plate without virus, ATPlite readout; assay type: cell-based; details: human, Hep-2 cells (no virus), Hep-2 cells without virus, 5-day incubation
Procedure: Following extensive parameter testing, the final assay is run as follows: Hep-2 cells are seeded into the inner 60 wells of a 96-well plate at 8,000 cells per well in a volume of 50 μL using Growth Media (DMEM without phenol red, 1% L-Glut, 1% Penn/Strep, 1% nonessential amino acids, 10% heat-inactivated FBS). 2-fold serial dilutions of control and test compounds are added to the wells in duplicate in a total volume of 25 μL. Viral stock is then added to the wells at a multiplicity of infection (MOI) of 0.1 in a volume of 25 μL, bringing the total volume of each well to 100 μL. The MOI is calculated using the PFU/mL, or TCID50 if unavailable. Each 96-well plate has a control column of 6 wells with cells and virus but no compound (negative control, max CPE), a column with cells but no compound or virus (positive control, minimum CPE), and a column with no cells or virus or compound (background plate/reagent control). The control wells with cells but no virus are given an additional 25 uL of growth media containing an equal quantity of sucrose as those wells receiving the viral stock in order to keep consistent in media and volume conditions. The outer wells of the plate are filled with 125 μL of moat media (DMEM, 1% Penn/Strep) to act as a thermal and evaporative moat around the test wells. Following a 5-day incubation period, the plates are read using ATPlite (50 uL added per well), which quantifies the amount of ATP (a measure of cell health) present in each well. Assay plates are read using the Envision luminometer. In parallel, cytotoxicity is examined on an additional 96-well plate treated in an identical manner, but substituting the 25 μL of viral stock for 25 μL of growth media. […] EC50 ranges are as follows: A<0.4 μM; B 0.4-0.8 μM; C>0.8 μM and CC50 ranges are as follows: A>50 μM; B 10-50 μM; C<10 μM.

O=C1Nc2ccccc2C(c2ccccc2)=NC1Nc1nnc(-c2ccc(F)cc2F)o1 (stereo not shown) [Example 50]
EC50 [1]: > 0.8 µM
CC50 at 5 days [2]: > 50 µM

COc1ccc(-c2nnc(NC3N=C(c4ccccc4)c4ccccc4NC3=O)o2)nc1 (stereo not shown) [Example 51]
EC50 [1]: 0.4 to 0.8 µM
CC50 at 5 days [2]: > 50 µM

COc1cccc(-c2nnc(NC3N=C(c4ccccc4)c4ccccc4NC3=O)o2)n1 (stereo not shown) [Example 52]
EC50 [1]: < 0.4 µM
CC50 at 5 days [2]: > 50 µM

O=C1Nc2ccccc2C(c2ccccc2)=NC1Nc1nnc(-c2ccc(F)nc2)o1 (stereo not shown) [Example 53]
EC50 [1]: 0.4 to 0.8 µM
CC50 at 5 days [2]: > 50 µM

COc1ccc(-c2nnc(NC3N=C(c4ccccc4)c4ccccc4NC3=O)o2)cn1 (stereo not shown) [Example 54]
EC50 [1]: < 0.4 µM
CC50 at 5 days [2]: > 50 µM

O=C1Nc2ccccc2C(c2ccccc2)=NC1Nc1nnc(-c2ccnc(F)c2)o1 (stereo not shown) [Example 55]
EC50 [1]: < 0.4 µM
CC50 at 5 days [2]: > 50 µM

COc1ccnc(-c2nnc(NC3N=C(c4ccccc4)c4ccccc4NC3=O)o2)c1 (stereo not shown) [Example 57]
EC50 [1]: > 0.8 µM
CC50 at 5 days [2]: > 50 µM

O=C1Nc2ccccc2C(c2ccccc2)=NC1Nc1nnc(-c2cnccn2)o1 (stereo not shown) [Example 58]
EC50 [1]: > 0.8 µM
CC50 at 5 days [2]: > 50 µM

O=C1Nc2ccccc2C(c2ccccc2)=NC1Nc1nnc(-c2ncccn2)o1 (stereo not shown) [Example 59]
EC50 [1]: > 0.8 µM
CC50 at 5 days [2]: > 50 µM

O=C1Nc2ccccc2C(c2ccccc2)=NC1Nc1nnc(-c2cncnc2)o1 (stereo not shown) [Example 60]
EC50 [1]: > 0.8 µM
CC50 at 5 days [2]: > 50 µM

O=C1Nc2ccccc2C(c2ccccc2)=NC1Nc1nnc(-c2ccncc2)o1 (stereo not shown) [Example 61]
EC50 [1]: 0.4 to 0.8 µM
CC50 at 5 days [2]: > 50 µM

O=C1Nc2ccccc2C(c2ccccc2)=NC1Nc1nnc(-c2cccnn2)o1 (stereo not shown) [Example 62]
EC50 [1]: > 0.8 µM
CC50 at 5 days [2]: > 50 µM

O=C1Nc2ccccc2C(c2ccccc2)=NC1Nc1nnc(-c2ccncn2)o1 (stereo not shown) [Example 63]
EC50 [1]: > 0.8 µM
CC50 at 5 days [2]: > 50 µM

COCc1cccc(-c2nnc(NC3N=C(c4ccccc4)c4ccccc4NC3=O)o2)n1 (stereo not shown) [Example 64]
EC50 [1]: > 0.8 µM
CC50 at 5 days [2]: > 50 µM

Cn1nccc1-c1nnc(NC2N=C(c3ccccc3)c3ccccc3NC2=O)o1 (stereo not shown) [Example 65]
EC50 [1]: > 0.8 µM
CC50 at 5 days [2]: > 50 µM

Cn1cc(-c2nnc(NC3N=C(c4ccccc4)c4ccccc4NC3=O)o2)cn1 (stereo not shown) [Example 66]
EC50 [1]: 0.4 to 0.8 µM
CC50 at 5 days [2]: > 50 µM

Cn1ccnc1-c1nnc(NC2N=C(c3ccccc3)c3ccccc3NC2=O)o1 (stereo not shown) [Example 67]
EC50 [1]: > 0.8 µM
CC50 at 5 days [2]: > 50 µM

Cn1cnc(-c2nnc(NC3N=C(c4ccccc4)c4ccccc4NC3=O)o2)c1 (stereo not shown) [Example 68]
EC50 [1]: > 0.8 µM
CC50 at 5 days [2]: > 50 µM

O=C1Nc2ccccc2C(c2ccccc2)=NC1Nc1nnc(-c2nccs2)o1 (stereo not shown) [Example 69]
EC50 [1]: > 0.8 µM
CC50 at 5 days [2]: > 50 µM

O=C1Nc2ccccc2C(c2ccccc2)=NC1Nc1nnc(-c2ncco2)o1 (stereo not shown) [Example 70]
EC50 [1]: > 0.8 µM
CC50 at 5 days [2]: > 50 µM

Cc1ccc(-c2nnc(NC3N=C(c4ccccc4)c4ccccc4NC3=O)o2)o1 (stereo not shown) [Example 71]
EC50 [1]: > 0.8 µM
CC50 at 5 days [2]: > 50 µM

COCc1ccc(-c2nnc(NC3N=C(c4ccccc4)c4ccccc4NC3=O)o2)o1 (stereo not shown) [Example 72]
EC50 [1]: > 0.8 µM
CC50 at 5 days [2]: > 50 µM

CN(C)Cc1ccc(-c2nnc(NC3N=C(c4ccccc4)c4ccccc4NC3=O)o2)o1 (stereo not shown) [Example 73]
EC50 [1]: > 0.8 µM
CC50 at 5 days [2]: > 50 µM

Cc1cc(-c2nnc(NC3N=C(c4ccccc4)c4ccccc4NC3=O)o2)on1 (stereo not shown) [Example 74]
EC50 [1]: > 0.8 µM
CC50 at 5 days [2]: > 50 µM

O=C1Nc2ccccc2C(c2ccccc2)=NC1Nc1nnc(-c2cnco2)o1 (stereo not shown) [Example 75]
EC50 [1]: > 0.8 µM
CC50 at 5 days [2]: > 50 µM

O=C1Nc2ccccc2C(c2ccccc2)=NC1Nc1nnc(-c2cncs2)o1 (stereo not shown) [Example 76]
EC50 [1]: > 0.8 µM
CC50 at 5 days [2]: > 50 µM

O=C1Nc2ccccc2C(c2ccccc2)=NC1Nc1nnc(-c2cscn2)o1 (stereo not shown) [Example 77]
EC50 [1]: 0.4 to 0.8 µM
CC50 at 5 days [2]: > 50 µM

O=C1Nc2ccccc2C(c2ccccc2)=NC1Nc1nnco1 (stereo not shown) [Example 79]
EC50 [1]: > 0.8 µM
CC50 at 5 days [2]: > 50 µM

O=C1Nc2ccccc2C(c2ccccc2)=NC1Nc1nnc(-c2ccc(F)cc2)s1 (stereo not shown) [Example 80]
EC50 [1]: > 0.8 µM
CC50 at 5 days [2]: > 50 µM

O=C1Nc2ccccc2C(c2ccccc2)=NC1Nc1nnc(-c2ccccc2)s1 (stereo not shown) [Example 81]
EC50 [1]: > 0.8 µM
CC50 at 5 days [2]: > 50 µM

N#Cc1ccc(-c2nnc(NC3N=C(c4ccccc4)c4ccccc4NC3=O)s2)cc1 (stereo not shown) [Example 82]
EC50 [1]: 0.4 to 0.8 µM
CC50 at 5 days [2]: > 50 µM

O=C1Nc2ccccc2C(c2ccccc2)=NC1Nc1nnc(-c2ccncc2)s1 (stereo not shown) [Example 83]
EC50 [1]: > 0.8 µM
CC50 at 5 days [2]: > 50 µM

O=C1Nc2ccccc2C(c2ccccc2)=NC1Nc1ncc(-c2ccccc2)o1 (stereo not shown) [Example 84]
EC50 [1]: > 0.8 µM
CC50 at 5 days [2]: 10 to 50 µM

O=C1Nc2ccccc2C(c2ccccc2)=NC1Nc1nnc(-c2ccccc2)[nH]1 (stereo not shown) [Example 86]
EC50 [1]: > 0.8 µM
CC50 at 5 days [2]: > 50 µM

O=C1Nc2ccccc2C(c2ccccc2)=NC1Nc1nc(-c2ccccc2)ns1 (stereo not shown) [Example 87]
EC50 [1]: > 0.8 µM
CC50 at 5 days [2]: 10 to 50 µM

O=C1Nc2ccccc2C(c2ccccc2)=NC1Nc1nc(N2CCOCC2)ns1 (stereo not shown) [Example 88]
EC50 [1]: > 0.8 µM
CC50 at 5 days [2]: 10 to 50 µM

O=C1Nc2ccccc2C(c2ccccc2)=NC1Nc1nc(-c2ccccc2)no1 (stereo not shown) [Example 89]
EC50 [1]: > 0.8 µM
CC50 at 5 days [2]: 10 to 50 µM

O=C1Nc2ccccc2C(c2ccccc2)=NC1Nc1nc(-c2ccccc2)cs1 (stereo not shown) [Example 90]
EC50 [1]: > 0.8 µM
CC50 at 5 days [2]: < 10 µM

O=C1Nc2ccccc2C(c2ccccc2)=NC1Nc1cc(-c2ccccc2)ncn1 (stereo not shown) [Example 92]
EC50 [1]: > 0.8 µM
CC50 at 5 days [2]: 10 to 50 µM

O=C1Nc2ccccc2C(c2ccccc2)=NC1Nc1cc(N2CCOCC2)ncn1 (stereo not shown) [Example 93]
EC50 [1]: > 0.8 µM
CC50 at 5 days [2]: 10 to 50 µM

O=C1Nc2ccccc2C(c2ccccc2)=NC1Nc1cc(Oc2ccccc2)ncn1 (stereo not shown) [Example 94]
EC50 [1]: > 0.8 µM
CC50 at 5 days [2]: 10 to 50 µM

O=C1Nc2ccccc2C(c2ccccc2)=NC1Nc1ccnc(-c2ccccc2)n1 (stereo not shown) [Example 96]
EC50 [1]: > 0.8 µM
CC50 at 5 days [2]: 10 to 50 µM

O=C1Nc2ccccc2C(c2ccccc2)=NC1Nc1cccn(Cc2ccccc2)c1=O (stereo not shown) [Example 97]
EC50 [1]: > 0.8 µM
CC50 at 5 days [2]: > 50 µM

O=C1Nc2ccccc2C(c2ccccc2)=NC1Nc1nc2ccc(Cl)cc2o1 (stereo not shown) [Example 99]
EC50 [1]: > 0.8 µM
CC50 at 5 days [2]: 10 to 50 µM

O=C1Nc2ccccc2C(c2ccccc2)=NC1Nc1nc2ccccc2o1 (stereo not shown) [Example 100]
EC50 [1]: > 0.8 µM
CC50 at 5 days [2]: 10 to 50 µM

O=C1Nc2ccccc2C(c2ccccc2)=NC1Nc1nc2ccccc2s1 (stereo not shown) [Example 101]
EC50 [1]: > 0.8 µM
CC50 at 5 days [2]: 10 to 50 µM

O=C1Nc2ccccc2C(c2ccccc2)=NC1Nc1nc2ccc(F)cc2o1 (stereo not shown) [Example 103]
EC50 [1]: > 0.8 µM
CC50 at 5 days [2]: 10 to 50 µM

O=C1Nc2ccccc2C(c2ccccc2)=NC1Nc1nc2cc(F)ccc2o1 (stereo not shown) [Example 104]
EC50 [1]: > 0.8 µM
CC50 at 5 days [2]: 10 to 50 µM

O=C1Nc2ccccc2C(c2ccccc2)=NC1Nc1nc2c(F)cccc2o1 (stereo not shown) [Example 105]
EC50 [1]: > 0.8 µM
CC50 at 5 days [2]: > 50 µM

Cc1ccc2oc(NC3N=C(c4ccccc4)c4ccccc4NC3=O)nc2c1 (stereo not shown) [Example 106]
EC50 [1]: > 0.8 µM
CC50 at 5 days [2]: < 10 µM
